Data as given in ChEMBL document CHEMBL4004838, “Design and synthesis of novel phenyl -1, 4-beta-carboline-hybrid molecules as potential anticancer agents” (Eur J Med Chem, 2017).
Converted amounts (≈) assume the structure as drawn.

Assays:
MCF7 = assay: Cytotoxicity against human MCF7 cells assessed as cell viability after 72 hrs by MTT assay; format: functional, cell-based; settings: MCF7, 72 h
LNCaP = assay: Cytotoxicity against human LNCAP cells assessed as cell viability after 72 hrs by MTT assay; format: functional, cell-based
HepG2 = assay: Cytotoxicity against human HepG2 cells assessed as cell viability after 72 hrs by MTT assay; format: functional, cell-based; settings: HepG2, 72 h
[1] = target: Kinesin-like protein KIF11 (Homo sapiens, UniProt P52732); assay: Inhibition of EG5 (unknown origin)
Sequence of Kinesin-like protein KIF11 (P52732 whole entry): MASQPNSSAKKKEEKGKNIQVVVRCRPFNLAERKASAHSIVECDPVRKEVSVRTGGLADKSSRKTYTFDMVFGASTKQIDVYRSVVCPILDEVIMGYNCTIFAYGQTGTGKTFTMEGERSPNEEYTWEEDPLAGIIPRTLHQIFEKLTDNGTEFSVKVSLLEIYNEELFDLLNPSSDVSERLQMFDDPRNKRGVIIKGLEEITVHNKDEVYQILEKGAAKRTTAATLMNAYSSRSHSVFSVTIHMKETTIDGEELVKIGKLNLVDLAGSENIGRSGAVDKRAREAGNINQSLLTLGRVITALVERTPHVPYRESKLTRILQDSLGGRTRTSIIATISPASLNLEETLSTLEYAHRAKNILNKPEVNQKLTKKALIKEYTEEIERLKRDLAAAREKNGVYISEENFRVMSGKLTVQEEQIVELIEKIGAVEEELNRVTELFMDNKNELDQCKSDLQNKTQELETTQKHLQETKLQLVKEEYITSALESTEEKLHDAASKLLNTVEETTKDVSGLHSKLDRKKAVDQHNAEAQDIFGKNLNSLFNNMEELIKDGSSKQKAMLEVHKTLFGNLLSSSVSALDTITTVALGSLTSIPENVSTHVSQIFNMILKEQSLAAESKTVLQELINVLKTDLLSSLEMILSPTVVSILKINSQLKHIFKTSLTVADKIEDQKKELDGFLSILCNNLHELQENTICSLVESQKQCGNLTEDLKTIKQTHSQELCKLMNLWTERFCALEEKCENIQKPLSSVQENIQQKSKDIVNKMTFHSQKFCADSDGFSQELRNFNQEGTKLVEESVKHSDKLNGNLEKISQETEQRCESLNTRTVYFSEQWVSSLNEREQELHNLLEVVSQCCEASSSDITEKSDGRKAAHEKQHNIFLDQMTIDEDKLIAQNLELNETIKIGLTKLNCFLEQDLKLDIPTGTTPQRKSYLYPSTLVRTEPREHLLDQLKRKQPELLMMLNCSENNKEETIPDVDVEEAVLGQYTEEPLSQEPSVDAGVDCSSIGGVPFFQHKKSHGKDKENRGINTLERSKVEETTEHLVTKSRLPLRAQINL

Row | IC50 [1] | SMILES | IC50 (MCF7) | IC50 (LNCaP) | IC50 (HepG2)
1 |  | c1ccc2c3c([nH]c2c1)[C@H](c1ccc([C@@H]2NCCc4c2[nH]c2ccccc42)cc1)NCC3 | 5.19 µg/mL (≈ 12.4 µM) | 13.3 µg/mL (≈ 31.8 µM) | 6.22 µg/mL (≈ 14.9 µM)
2 |  | c1ccc2c3c([nH]c2c1)[C@@H](c1ccc([C@H]2NCCc4c2[nH]c2ccccc42)cc1)NCC3 | 8.7 µg/mL (≈ 20.8 µM) | 15.2 µg/mL (≈ 36.4 µM) | 5.22 µg/mL (≈ 12.5 µM)
3 |  | COc1cccc2c1C(=O)c1c(O)c3c(c(O)c1C2=O)C[C@@](O)(C(=O)CO)C[C@@H]3O[C@H]1C[C@H](N)[C@H](O)[C@H](C)O1 [DOXORUBICIN] |  | 5.28 µg/mL (≈ 9.71 µM) | 4.23 µg/mL (≈ 7.78 µM)
4 | 800 nM | CCCCN1C(=O)[C@H]2Cc3c([nH]c4ccccc34)[C@@H](c3cccc(O)c3)N2C1=O |  |  | 
